pKd: −log10 of the molar value.

We go through one substance from paper doi:10.1101/2025.07.30.663779v2 (biorxiv, 2025).

In assay [1] the target is αCD40-mSAs. Description: fluorescence polarization titration. To be noted: PBS; 20 nM biotin-FITC (Millipore-Sigma cat. 53608); labelled compound. The format is binding.
Assay [2] concerns the target recombinant streptavidin (Streptomyces avidinii, UniProt P22629). In words: fluorescence polarization titration. To be noted: PBS; 20 nM biotin-FITC (Millipore-Sigma cat. 53608); labelled compound. The format is binding.

Chain of recombinant streptavidin (P22629 25-183): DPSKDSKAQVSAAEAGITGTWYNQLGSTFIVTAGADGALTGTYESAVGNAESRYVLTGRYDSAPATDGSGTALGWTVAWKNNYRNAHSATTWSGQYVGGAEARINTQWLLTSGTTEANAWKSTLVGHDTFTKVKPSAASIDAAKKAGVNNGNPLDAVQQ

For the substance biotin-FITC, the pKd in assay [1] was 7.16; in assay [2], 7.69.
